Test results as given in ChEMBL document CHEMBL6134867, “Design and Synthesis of FR-β Targeting Chimeric Molecules for Reprogramming Tumor-Associated Macrophages Using 6-Substituted Pyrrolo[2,3-d]pyrimidines as Targeting Ligands” (J Med Chem, 2025).
Active and inactive are the calls of the source. No cut-off for these calls is given here.

What was measured:
BMDM [1] = experiment: Induction of macrophage repolarization in FR-beta expressing IL-4 differentiated M2 phenotype mouse BMDM cells assessed as reprogramming to M1 phenotype by measuring upregulation of MyD88 expression at 10 nM incubated for 24 hrs by western blot analysis; assay type: functional, cell-based
BMDM [2] = experiment: Induction of macrophage repolarization in FR-beta expressing IL-4 differentiated M2 phenotype mouse BMDM cells assessed as reprogramming to M1 phenotype by measuring downregulation of CD206 expression at 10 nM incubated for 24 hrs by western blot analysis; assay type: functional, cell-based
BMDM [3] = experiment: Induction of macrophage repolarization in FR-beta expressing IL-4 differentiated M2 phenotype mouse BMDM cells assessed as reprogramming to M1 phenotype by measuring TNF-alpha level at 10 nM incubated for 24 hrs by ELISA; assay type: functional, cell-based
[4] = Toxicity against BALB/c mouse assessed as increase in TNF-alpha level in plasma at 20 ug, iv measured after 2 hrs by ELISA; assay type: organism-based; settings: in vivo, dose 20 µg
[5] = Toxicity against BALB/c mouse xenografted with mouse 4T1 cells assessed as decrease in body weight at 0.333 mg/kg, iv qd for 14 days and measured every day; assay type: organism-based; settings: in vivo, 336 h, time 14 day
[6] = Toxicity against BALB/c mouse assessed as increase in IL-6 level in plasma at 20 ug, iv measured after 2 hrs by ELISA; assay type: organism-based; settings: in vivo, dose 20 µg
[7] = Cytotoxicity against mouse BMDM cells assessed as reduction in cell viability at >10 uM incubated for 24 hrs by CCK-8 assay; assay type: toxicity, cell-based
BMDM [8] = experiment: Induction of macrophage repolarization in FR-beta expressing IL-4 differentiated M2 phenotype mouse BMDM cells assessed as reprogramming to M1 phenotype by measuring downregulation of Arg1 expression at 10 nM incubated for 24 hrs by western blot analysis; assay type: functional, cell-based
4T1 [9] = experiment: Cytotoxicity against mouse 4T1 cells assessed as reduction in cell viability at >10 uM incubated for 24 hrs by CCK-8 assay; assay type: toxicity, cell-based; settings: 4t1, 24 h
BMDM [10] = experiment: Induction of macrophage repolarization in FR-beta expressing IL-4 differentiated M2 phenotype mouse BMDM cells assessed as reprogramming to M1 phenotype by measuring upregulation of TLR7 mRNA expression at 10 nM incubated for 24 hrs by RT-qPCR analysis; assay type: functional, cell-based
4T1 [11] = experiment: Antitumor activity against mouse 4T1 cells xenografted in BALB/c mouse assessed as lifespan of animal's survival at 0.333 mg/kg, iv qd for 14 days; assay type: functional; settings: time 14 day
BMDM [12] = experiment: Induction of macrophage repolarization in FR-beta expressing IL-4 differentiated M2 phenotype mouse BMDM cells assessed as reprogramming to M1 phenotype by measuring upregulation of IL-6 level at 10 nM incubated for 24 hrs by ELISA; assay type: functional, cell-based
Mus musculus [13] = experiment: In vivo repolarization of macrophages from M2 phenotype to M1 phenotype in BALB/c mouse xenografted with mouse 4T1 cells assessed as increase in M1 (F4/80+CD11b+CD86+) to M2 (F4/80+CD11b+CD206+) macrophage ratio in tumor at 0.333 mg/kg, iv qd for 14 days by flow cytometry; assay type: functional, organism-based; settings: time 14.0 day
BMDM [14] = experiment: Induction of macrophage repolarization in FR-beta expressing IL-4 differentiated M2 phenotype mouse BMDM cells assessed as reprogramming to M1 phenotype by measuring TNF-alpha mRNA expression at 10 nM incubated for 24 hrs by RT-qPCR analysis; assay type: functional, cell-based
BMDM [15] = experiment: Induction of macrophage repolarization in FR-beta expressing IL-4 differentiated M2 phenotype mouse BMDM cells assessed as reprogramming to M1 phenotype by measuring downregulation of CD206 mRNA expression at 10 nM incubated for 24 hrs by RT-qPCR analysis; assay type: functional, cell-based
BMDM [16] = experiment: Induction of macrophage repolarization in FR-beta expressing IL-4 differentiated M2 phenotype mouse BMDM cells assessed as reprogramming to M1 phenotype by measuring upregulation of TLR7 expression at 10 nM incubated for 24 hrs by western blot analysis; assay type: functional, cell-based
BMDM [17] = experiment: Induction of macrophage repolarization in FR-beta expressing IL-4 differentiated M2 phenotype mouse BMDM cells assessed as reprogramming to M1 phenotype by measuring downregulation of Arg1 mRNA expression at 10 nM incubated for 24 hrs by RT-qPCR analysis; assay type: functional, cell-based
BMDM [18] = experiment: Induction of macrophage repolarization in FR-beta expressing IL-4 differentiated M2 phenotype mouse BMDM cells assessed as reprogramming to M1 phenotype by measuring downregulation of IL-10 mRNA expression at 10 nM incubated for 24 hrs by RT-qPCR analysis; assay type: functional, cell-based
BMDM [19] = experiment: Induction of macrophage repolarization in FR-beta expressing IL-4 differentiated M2 phenotype mouse BMDM cells assessed as reprogramming to M1 phenotype by measuring upregulation of iNOS mRNA expression at 10 nM incubated for 24 hrs by RT-qPCR analysis; assay type: functional, cell-based
BMDM [20] = experiment: Induction of macrophage repolarization in FR-beta expressing IL-4 differentiated M2 phenotype mouse BMDM cells assessed as reprogramming to M1 phenotype by measuring upregulation of iNOS expression at 10 nM incubated for 24 hrs by western blot analysis; assay type: functional, cell-based
[21] = Toxicity against BALB/c mouse xenografted with mouse 4T1 cells assessed as heightened inflammatory response in lung at 0.333 mg/kg, iv qd for 14 days by Hematoxylin-Eosin staining based analysis; assay type: organism-based; settings: in vivo, 336 h, time 14 day
BMDM [22] = experiment: Induction of macrophage repolarization in FR-beta expressing IL-4 differentiated M2 phenotype mouse BMDM cells assessed as reprogramming to M1 phenotype by measuring upregulation of IL-6 mRNA expression at 10 nM incubated for 24 hrs by RT-qPCR analysis; assay type: functional, cell-based
4T1 [23] = experiment: Antitumor activity against mouse 4T1 cells xenografted in BALB/c mouse assessed as inhibition of tumor growth at 0.333 mg/kg, iv qd for 14 days and measured every day by digital caliper analysis; assay type: functional, organism-based; settings: time 14.0 day
BMDM [24] = experiment: Induction of macrophage repolarization in FR-beta expressing IL-4 differentiated M2 phenotype mouse BMDM cells assessed as reprogramming to M1 phenotype by measuring downregulation of IL-10 level at 10 nM incubated for 24 hrs by ELISA; assay type: functional, cell-based
HUVEC [25] = experiment: Cytotoxicity against human HUVEC cells assessed as reduction in cell viability at >10 uM incubated for 24 hrs by CCK-8 assay; assay type: toxicity, cell-based
[26] = Toxicity against BALB/c mouse xenografted with mouse 4T1 cells assessed as pathological changes in liver at 1 mg/kg, iv qd for 14 days by Hematoxylin-Eosin staining based analysis; assay type: organism-based; settings: in vivo, 336 h, time 14 day
4T1 [27] = experiment: Cytotoxicity against mouse 4T1 cells assessed as reduction in cell viability incubated for 24 hrs by CCK-8 assay; assay type: toxicity, cell-based; settings: 4t1, 24 h
[28] = Prodrug release assessed as IMDQ formation in presence of 10 mM GSH and measured after 1 to 8 hrs by HPLC analysis; assay type: ADME; settings: time 1-8 hrs
[29] = Toxicity against BALB/c mouse xenografted with mouse 4T1 cells assessed as heightened inflammatory response in lung at 1 mg/kg, iv qd for 14 days by Hematoxylin-Eosin staining based analysis; assay type: organism-based; settings: in vivo, 336 h, time 14 day
HUVEC [30] = experiment: Cytotoxicity against human HUVEC cells assessed as reduction in cell viability incubated for 24 hrs by CCK-8 assay; assay type: toxicity, cell-based
4T1 [31] = experiment: Antitumor activity against mouse 4T1 cells xenografted in BALB/c mouse assessed as lifespan of animal's survival at 1 mg/kg, iv qd for 14 days; assay type: functional; settings: time 14 day
[32] = Toxicity against BALB/c mouse xenografted with mouse 4T1 cells assessed as pathological changes in kidney at 1 mg/kg, iv qd for 14 days by Hematoxylin-Eosin staining based analysis; assay type: organism-based; settings: in vivo, 336 h, time 14 day
[33] = Toxicity against BALB/c mouse xenografted with mouse 4T1 cells assessed as pathological changes in heart at 1 mg/kg, iv qd for 14 days by Hematoxylin-Eosin staining based analysis; assay type: organism-based; settings: in vivo, 336 h, time 14 day
[34] = Cytotoxicity against mouse BMDM cells assessed as reduction in cell viability incubated for 24 hrs by CCK-8 assay; assay type: toxicity, cell-based
[35] = Stability of the compound in mouse plasma at 5 uM and measured at 37 degC and for up to 12 hrs by HPLC analysis; assay type: ADME, cell-free; settings: read-out: Stability
[36] = Stability of the compound in PBS measured at 4 degC and for 15 days; assay type: physicochemical; settings: time 15 day, read-out: Stability
4T1 [37] = experiment: Antitumor activity against mouse 4T1 cells xenografted in BALB/c mouse assessed as inhibition of tumor growth at 1 mg/kg, iv qd for 14 days and measured every day by digital caliper analysis; assay type: functional, organism-based; settings: time 14.0 day
[38] = Prodrug release assessed as IMDQ-SH formation in presence of 10 mM GSH and measured within 1 hr by HPLC analysis; assay type: ADME
Mus musculus [39] = experiment: In vivo transition from anti-inflammatory to pro-inflammatory phenotypes in BALB/c mouse xenografted with mouse 4T1 cells assessed as decrease in proportion of Ly6C+ and Ly6G+ cells within CD45+ population at 1 mg/kg, iv qd for 14 days by flow cytometry; assay type: functional, organism-based; settings: time 14.0 day
Mus musculus [40] = experiment: In vivo transition from anti-inflammatory to pro-inflammatory phenotypes in BALB/c mouse xenografted with mouse 4T1 cells assessed as CD4+ cells population at 1 mg/kg, iv qd for 14 days by flow cytometry; assay type: functional, organism-based; settings: time 14.0 day
[41] = Toxicity against BALB/c mouse xenografted with mouse 4T1 cells assessed as effect on body weight at 1 mg/kg, iv qd for 14 days and measured every day; assay type: organism-based; settings: in vivo, 336 h, time 14 day
Mus musculus [42] = experiment: In vivo transition from anti-inflammatory to pro-inflammatory phenotypes in BALB/c mouse xenografted with mouse 4T1 cells assessed as upregulation in proportion of CD8+ cells at 1 mg/kg, iv qd for 14 days by flow cytometry; assay type: functional, organism-based; settings: time 14.0 day
Mus musculus [43] = experiment: In vivo repolarization of macrophages from M2 phenotype to M1 phenotype in BALB/c mouse xenografted with mouse 4T1 cells assessed as increase in M1 (F4/80+CD11b+CD86+) to M2 (F4/80+CD11b+CD206+) macrophage ratio in tumor at 1 mg/kg, iv qd for 14 days by flow cytometry; assay type: functional, organism-based; settings: time 14.0 day
[44] = Toxicity against BALB/c mouse xenografted with mouse 4T1 cells assessed as pathological changes in spleen at 1 mg/kg, iv qd for 14 days by Hematoxylin-Eosin staining based analysis; assay type: organism-based; settings: in vivo, 336 h, time 14 day

CCCCc1nc2c(N)nc3ccccc3c2n1Cc1ccc(CN)cc1
Activity (BMDM [1]): Active | Activity (BMDM [2]): Active | Activity (BMDM [3]): inactive | Activity [4]: Toxic | Activity [5]: Toxic | Activity [6]: Toxic | Activity [7]: Toxic | Activity (BMDM [8]): Active | Activity (4T1 [9]): Toxic | Activity (BMDM [10]): Active | Survival (4T1 [11]): 27 days | Activity (BMDM [12]): Active | Activity (Mus musculus [13]): inactive | Activity (BMDM [14]): inactive | Activity (BMDM [15]): Active | Activity (BMDM [16]): Active | Activity (BMDM [17]): Active | Activity (BMDM [18]): Active | Activity (BMDM [19]): Active | Activity (BMDM [20]): Active | Activity [21]: Toxic | Activity (BMDM [22]): Active | Activity (4T1 [23]): Active; Diminished Antitumor Efficacy Compared To Fgt-1 To 4 Observed | Activity (BMDM [24]): Active | Activity (HUVEC [25]): Toxic

CCCCc1nc2c(N)nc3ccccc3c2n1Cc1ccc(CNC(=O)OCCSSC[C@H](NC(=O)CC[C@H](NC(=O)c2ccc(CCCCc3cc4c(=O)[nH]c(N)nc4[nH]3)cc2)C(=O)O)C(=O)O)cc1
Activity (BMDM [1]): Active | Activity (BMDM [2]): Active; More Pronounced Effect Compared To Fgt-2,3 Observed | Activity [26]: Non-toxic | Activity (4T1 [27]): Non-toxic | Activity (BMDM [3]): inactive | Activity [4]: Non-toxic | Drug metabolism [28]: metabolite_detected | Activity [6]: Non-toxic | Activity (BMDM [8]): Active; More Pronounced Effect Compared To Fgt-2,3 Observed | Activity [29]: Non-toxic | Activity (HUVEC [30]): Non-toxic | Survival (4T1 [31]): 35 days | Activity (BMDM [10]): Active | Activity [32]: Non-toxic | Activity [33]: Non-toxic | Activity [34]: Non-toxic | Activity (BMDM [12]): Active; More Pronounced Effect Compared To Fgt-2 Observed | remaining at 12 h, 5 µM [35]: 95% | remaining at 360 h [36]: > 95% | Activity (4T1 [37]): Active; Most Pronounced Effect Compared To Fgt-1,2,3 Observed | Activity (BMDM [14]): inactive | Activity (BMDM [15]): Active; More Pronounced Effect Compared To Fgt-2,3 Observed | Drug metabolism [38]: metabolite_detected | Activity (BMDM [16]): Active | Activity (BMDM [17]): Active; More Pronounced Effect Compared To Fgt-2,3 Observed | Activity (BMDM [18]): Active; More Pronounced Effect Compared To Fgt-2 Observed | Activity (Mus musculus [39]): Active | Activity (BMDM [19]): Active; More Pronounced Effect Compared To Fgt-2,3 Observed | Activity (Mus musculus [40]): inactive | Activity (BMDM [20]): Active; More Pronounced Effect Compared To Fgt-2,3 Observed | Activity [41]: Non-toxic | Activity (Mus musculus [42]): Active | Activity (BMDM [22]): Active; More Pronounced Effect Compared To Fgt-2 Observed | Activity (Mus musculus [43]): Active | Activity (BMDM [24]): Active; More Pronounced Effect Compared To Fgt-2 Observed | Activity [44]: Non-toxic
